Measured values from ChEMBL document CHEMBL4507268 (2021).

Columns and labels:
Details in all cases: Compound concentration 1000.0 nM
[1] = molecular target: T1, Activin receptor type-1 (Homo sapiens) (UniProt Q04771)
T1 sequence (whole entry): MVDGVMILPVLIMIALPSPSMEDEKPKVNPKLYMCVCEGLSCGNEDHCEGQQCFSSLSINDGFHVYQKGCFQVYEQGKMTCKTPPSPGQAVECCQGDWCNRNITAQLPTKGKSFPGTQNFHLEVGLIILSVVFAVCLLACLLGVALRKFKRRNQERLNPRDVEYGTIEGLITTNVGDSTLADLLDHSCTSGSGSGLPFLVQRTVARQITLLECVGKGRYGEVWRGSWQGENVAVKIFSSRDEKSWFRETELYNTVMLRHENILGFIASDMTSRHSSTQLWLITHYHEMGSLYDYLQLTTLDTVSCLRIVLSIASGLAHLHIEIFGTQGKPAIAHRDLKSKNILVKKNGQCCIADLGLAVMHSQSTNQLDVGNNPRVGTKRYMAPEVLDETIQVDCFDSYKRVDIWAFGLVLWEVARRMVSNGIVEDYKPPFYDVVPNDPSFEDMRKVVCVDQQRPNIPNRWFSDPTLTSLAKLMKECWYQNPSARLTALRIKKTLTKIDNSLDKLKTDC

[2] = molecular target: Cyclin-dependent kinase 11A (Homo sapiens) (UniProt Q9UQ88)
[3] = molecular target: Cyclin-dependent kinase 19 (Homo sapiens) (UniProt Q9BWU1)
[4] = molecular target: Cyclin-dependent kinase 9 (Homo sapiens) (UniProt P50750)
[5] = molecular target: T2, Serine/threonine-protein kinase 17A (Homo sapiens) (UniProt Q9UEE5)
T2 sequence (whole entry): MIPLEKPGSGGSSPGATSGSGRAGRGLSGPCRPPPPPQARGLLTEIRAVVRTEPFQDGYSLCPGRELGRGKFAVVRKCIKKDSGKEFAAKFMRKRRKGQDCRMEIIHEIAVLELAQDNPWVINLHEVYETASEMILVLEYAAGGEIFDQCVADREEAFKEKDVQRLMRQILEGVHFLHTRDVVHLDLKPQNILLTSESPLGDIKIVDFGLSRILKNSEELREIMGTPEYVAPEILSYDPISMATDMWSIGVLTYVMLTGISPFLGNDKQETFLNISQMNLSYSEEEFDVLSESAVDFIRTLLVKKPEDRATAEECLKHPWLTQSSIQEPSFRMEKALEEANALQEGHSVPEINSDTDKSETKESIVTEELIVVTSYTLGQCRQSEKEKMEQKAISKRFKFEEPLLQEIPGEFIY

[6] = molecular target: Tyrosine-protein kinase Lyn (Homo sapiens) (UniProt P07948)
[7] = molecular target: Dual specificity mitogen-activated protein kinase kinase 2 (Homo sapiens) (UniProt P36507)
[8] = molecular target: T3, Serine/threonine-protein kinase 3 (Homo sapiens) (UniProt Q13188)
T3 sequence (whole entry): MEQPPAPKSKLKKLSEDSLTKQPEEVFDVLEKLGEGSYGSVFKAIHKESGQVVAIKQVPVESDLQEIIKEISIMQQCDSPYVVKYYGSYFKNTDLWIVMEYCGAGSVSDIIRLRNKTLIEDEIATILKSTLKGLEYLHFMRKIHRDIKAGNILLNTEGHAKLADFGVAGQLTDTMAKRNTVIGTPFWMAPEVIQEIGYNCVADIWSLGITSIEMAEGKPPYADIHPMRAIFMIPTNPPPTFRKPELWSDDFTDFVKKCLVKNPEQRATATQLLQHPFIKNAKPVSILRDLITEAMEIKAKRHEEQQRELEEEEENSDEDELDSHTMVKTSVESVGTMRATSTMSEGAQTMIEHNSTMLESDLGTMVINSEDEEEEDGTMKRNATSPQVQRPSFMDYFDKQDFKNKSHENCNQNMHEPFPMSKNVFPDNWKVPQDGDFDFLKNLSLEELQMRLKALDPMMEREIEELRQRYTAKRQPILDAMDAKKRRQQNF

[9] = molecular target: Cyclin-dependent kinase 14 (Homo sapiens) (UniProt O94921)
[10] = molecular target: Membrane-associated tyrosine- and threonine-specific cdc2-inhibitory kinase (Homo sapiens) (UniProt Q99640)
[11] = molecular target: T4, Serine/threonine-protein kinase D2 (Homo sapiens) (UniProt Q9BZL6)
T4 sequence (whole entry): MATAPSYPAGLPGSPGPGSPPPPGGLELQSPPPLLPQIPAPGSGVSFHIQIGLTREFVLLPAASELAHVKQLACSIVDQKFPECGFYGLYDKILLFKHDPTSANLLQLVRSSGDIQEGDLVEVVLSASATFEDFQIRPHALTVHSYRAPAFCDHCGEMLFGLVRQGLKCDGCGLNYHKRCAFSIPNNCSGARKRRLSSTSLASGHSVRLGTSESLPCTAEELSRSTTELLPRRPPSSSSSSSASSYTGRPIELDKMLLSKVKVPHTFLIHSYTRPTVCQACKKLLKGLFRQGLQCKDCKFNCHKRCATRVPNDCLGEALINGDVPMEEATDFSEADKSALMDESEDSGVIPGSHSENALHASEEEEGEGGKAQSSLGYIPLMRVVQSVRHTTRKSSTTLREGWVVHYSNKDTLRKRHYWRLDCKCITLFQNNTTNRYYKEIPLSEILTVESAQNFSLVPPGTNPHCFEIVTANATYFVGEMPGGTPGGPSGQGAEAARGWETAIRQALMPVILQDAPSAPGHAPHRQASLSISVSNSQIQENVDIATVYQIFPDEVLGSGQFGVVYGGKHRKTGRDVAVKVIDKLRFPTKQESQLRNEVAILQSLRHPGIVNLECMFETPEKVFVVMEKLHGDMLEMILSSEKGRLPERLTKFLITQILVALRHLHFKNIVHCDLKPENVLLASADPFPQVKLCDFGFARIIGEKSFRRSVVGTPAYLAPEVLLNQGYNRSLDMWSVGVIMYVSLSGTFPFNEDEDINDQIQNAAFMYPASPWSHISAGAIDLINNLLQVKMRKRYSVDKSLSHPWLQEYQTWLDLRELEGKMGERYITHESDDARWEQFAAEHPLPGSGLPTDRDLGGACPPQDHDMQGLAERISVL

[12] = molecular target: TRAF2 and NCK-interacting protein kinase (Homo sapiens) (UniProt Q9UKE5)
[13] = molecular target: Serine/threonine-protein kinase WNK4 (Homo sapiens) (UniProt Q96J92)
[14] = molecular target: Serine/threonine-protein kinase 32B (Homo sapiens) (UniProt Q9NY57)

Measured: residual activity

TRAF2 and NCK-interacting protein kinase (Homo sapiens), sequence (Q9UKE5 whole entry, looked up): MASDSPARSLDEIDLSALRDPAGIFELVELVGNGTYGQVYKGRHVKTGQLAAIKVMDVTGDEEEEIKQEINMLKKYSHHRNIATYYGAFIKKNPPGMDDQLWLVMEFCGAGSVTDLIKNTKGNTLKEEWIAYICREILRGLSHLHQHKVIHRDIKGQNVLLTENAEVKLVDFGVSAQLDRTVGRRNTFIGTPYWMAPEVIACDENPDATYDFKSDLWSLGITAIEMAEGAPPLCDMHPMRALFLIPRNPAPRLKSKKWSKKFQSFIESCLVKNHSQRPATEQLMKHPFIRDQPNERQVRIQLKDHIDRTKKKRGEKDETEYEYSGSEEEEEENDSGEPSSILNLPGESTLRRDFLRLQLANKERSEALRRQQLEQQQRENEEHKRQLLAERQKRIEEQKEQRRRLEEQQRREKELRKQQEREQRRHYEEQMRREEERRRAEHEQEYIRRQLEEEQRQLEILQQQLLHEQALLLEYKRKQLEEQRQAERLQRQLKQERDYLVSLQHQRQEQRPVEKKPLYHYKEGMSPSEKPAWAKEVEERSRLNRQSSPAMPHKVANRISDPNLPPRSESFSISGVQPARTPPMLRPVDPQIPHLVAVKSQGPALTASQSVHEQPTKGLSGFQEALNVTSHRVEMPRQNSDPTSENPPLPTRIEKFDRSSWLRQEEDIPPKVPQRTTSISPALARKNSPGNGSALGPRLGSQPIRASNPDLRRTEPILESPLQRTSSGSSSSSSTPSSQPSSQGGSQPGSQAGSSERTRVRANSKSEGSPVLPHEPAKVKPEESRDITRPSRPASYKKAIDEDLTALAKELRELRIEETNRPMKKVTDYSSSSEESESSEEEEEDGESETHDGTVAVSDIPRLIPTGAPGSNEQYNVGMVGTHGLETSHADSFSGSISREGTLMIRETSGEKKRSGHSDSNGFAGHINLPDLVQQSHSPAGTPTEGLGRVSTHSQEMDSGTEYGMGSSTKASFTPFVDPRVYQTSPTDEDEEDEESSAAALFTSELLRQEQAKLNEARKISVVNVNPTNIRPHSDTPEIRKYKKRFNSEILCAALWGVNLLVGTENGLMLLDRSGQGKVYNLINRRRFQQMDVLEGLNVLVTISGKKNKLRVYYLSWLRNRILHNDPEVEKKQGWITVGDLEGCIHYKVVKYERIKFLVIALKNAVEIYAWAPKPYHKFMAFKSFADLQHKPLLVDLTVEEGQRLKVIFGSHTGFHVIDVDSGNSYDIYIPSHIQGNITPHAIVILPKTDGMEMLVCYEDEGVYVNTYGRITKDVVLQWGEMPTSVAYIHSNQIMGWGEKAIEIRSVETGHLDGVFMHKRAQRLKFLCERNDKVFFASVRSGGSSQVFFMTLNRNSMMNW
Membrane-associated tyrosine- and threonine-specific cdc2-inhibitory kinase (Homo sapiens), sequence (Q99640 whole entry): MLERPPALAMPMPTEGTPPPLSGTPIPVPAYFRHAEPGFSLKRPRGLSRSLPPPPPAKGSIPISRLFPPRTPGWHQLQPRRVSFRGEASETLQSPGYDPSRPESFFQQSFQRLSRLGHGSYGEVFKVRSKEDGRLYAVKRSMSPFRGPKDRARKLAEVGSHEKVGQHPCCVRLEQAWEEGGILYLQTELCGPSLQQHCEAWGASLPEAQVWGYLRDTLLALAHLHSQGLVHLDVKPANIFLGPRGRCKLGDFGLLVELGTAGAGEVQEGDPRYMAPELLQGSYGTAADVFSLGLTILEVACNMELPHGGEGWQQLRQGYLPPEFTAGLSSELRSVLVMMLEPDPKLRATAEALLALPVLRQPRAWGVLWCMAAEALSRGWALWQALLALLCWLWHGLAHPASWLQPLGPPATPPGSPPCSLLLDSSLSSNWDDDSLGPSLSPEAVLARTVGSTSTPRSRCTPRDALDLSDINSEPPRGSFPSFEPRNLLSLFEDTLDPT
Cyclin-dependent kinase 9 (Homo sapiens), sequence (P50750 whole entry): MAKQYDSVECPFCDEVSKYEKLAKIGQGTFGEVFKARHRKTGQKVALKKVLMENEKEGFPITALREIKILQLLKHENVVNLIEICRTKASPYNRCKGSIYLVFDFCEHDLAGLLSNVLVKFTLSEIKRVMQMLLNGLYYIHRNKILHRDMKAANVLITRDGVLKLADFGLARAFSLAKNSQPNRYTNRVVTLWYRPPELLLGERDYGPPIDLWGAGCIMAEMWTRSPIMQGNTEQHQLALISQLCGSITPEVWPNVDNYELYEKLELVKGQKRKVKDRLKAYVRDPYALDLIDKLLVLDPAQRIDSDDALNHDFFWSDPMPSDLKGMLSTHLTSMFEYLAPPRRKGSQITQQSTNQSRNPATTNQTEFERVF
Serine/threonine-protein kinase 32B (Homo sapiens), sequence (Q9NY57 whole entry): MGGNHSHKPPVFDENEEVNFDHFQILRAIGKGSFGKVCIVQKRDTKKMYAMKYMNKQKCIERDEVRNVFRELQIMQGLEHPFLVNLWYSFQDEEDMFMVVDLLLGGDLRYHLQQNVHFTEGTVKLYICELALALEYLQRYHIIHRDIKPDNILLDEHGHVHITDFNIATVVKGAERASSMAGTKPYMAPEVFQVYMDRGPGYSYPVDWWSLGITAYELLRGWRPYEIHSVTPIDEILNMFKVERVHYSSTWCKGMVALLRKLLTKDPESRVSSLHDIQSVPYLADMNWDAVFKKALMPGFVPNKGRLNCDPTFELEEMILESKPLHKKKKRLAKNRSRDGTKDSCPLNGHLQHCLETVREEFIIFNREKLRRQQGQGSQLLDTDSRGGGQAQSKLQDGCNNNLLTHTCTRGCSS
Serine/threonine-protein kinase WNK4 (Homo sapiens), sequence (Q96J92 whole entry): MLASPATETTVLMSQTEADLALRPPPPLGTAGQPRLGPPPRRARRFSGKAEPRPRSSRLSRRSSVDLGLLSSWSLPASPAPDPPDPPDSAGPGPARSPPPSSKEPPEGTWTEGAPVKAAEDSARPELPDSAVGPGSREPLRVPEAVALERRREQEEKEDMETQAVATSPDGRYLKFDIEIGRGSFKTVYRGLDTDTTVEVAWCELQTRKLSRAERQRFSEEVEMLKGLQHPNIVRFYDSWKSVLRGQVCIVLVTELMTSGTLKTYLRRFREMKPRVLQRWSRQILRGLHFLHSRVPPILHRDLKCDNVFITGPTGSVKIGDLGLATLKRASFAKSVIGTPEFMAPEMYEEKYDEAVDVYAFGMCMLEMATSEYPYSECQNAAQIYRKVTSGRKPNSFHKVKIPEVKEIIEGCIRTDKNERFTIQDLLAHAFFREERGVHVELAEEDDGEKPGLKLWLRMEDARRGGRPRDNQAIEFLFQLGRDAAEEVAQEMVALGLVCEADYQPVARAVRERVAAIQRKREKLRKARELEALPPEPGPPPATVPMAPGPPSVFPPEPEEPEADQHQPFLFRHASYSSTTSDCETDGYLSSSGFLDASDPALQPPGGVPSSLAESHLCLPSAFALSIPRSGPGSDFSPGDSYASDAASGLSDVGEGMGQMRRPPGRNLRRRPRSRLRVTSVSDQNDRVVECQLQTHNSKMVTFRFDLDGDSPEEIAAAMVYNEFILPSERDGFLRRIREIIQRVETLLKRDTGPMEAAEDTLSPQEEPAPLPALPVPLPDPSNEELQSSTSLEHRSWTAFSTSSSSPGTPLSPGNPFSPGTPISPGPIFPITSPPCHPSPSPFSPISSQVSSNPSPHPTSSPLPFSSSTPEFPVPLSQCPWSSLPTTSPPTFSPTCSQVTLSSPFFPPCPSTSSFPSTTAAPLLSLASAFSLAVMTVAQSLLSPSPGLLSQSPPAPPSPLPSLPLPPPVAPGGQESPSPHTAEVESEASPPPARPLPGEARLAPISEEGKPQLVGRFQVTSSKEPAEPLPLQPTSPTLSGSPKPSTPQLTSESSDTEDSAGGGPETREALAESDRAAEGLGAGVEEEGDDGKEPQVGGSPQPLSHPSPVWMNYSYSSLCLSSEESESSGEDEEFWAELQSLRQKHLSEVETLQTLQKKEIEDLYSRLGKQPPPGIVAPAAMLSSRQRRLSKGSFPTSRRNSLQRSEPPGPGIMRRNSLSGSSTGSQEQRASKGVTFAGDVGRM
Cyclin-dependent kinase 14 (Homo sapiens), sequence (O94921 whole entry): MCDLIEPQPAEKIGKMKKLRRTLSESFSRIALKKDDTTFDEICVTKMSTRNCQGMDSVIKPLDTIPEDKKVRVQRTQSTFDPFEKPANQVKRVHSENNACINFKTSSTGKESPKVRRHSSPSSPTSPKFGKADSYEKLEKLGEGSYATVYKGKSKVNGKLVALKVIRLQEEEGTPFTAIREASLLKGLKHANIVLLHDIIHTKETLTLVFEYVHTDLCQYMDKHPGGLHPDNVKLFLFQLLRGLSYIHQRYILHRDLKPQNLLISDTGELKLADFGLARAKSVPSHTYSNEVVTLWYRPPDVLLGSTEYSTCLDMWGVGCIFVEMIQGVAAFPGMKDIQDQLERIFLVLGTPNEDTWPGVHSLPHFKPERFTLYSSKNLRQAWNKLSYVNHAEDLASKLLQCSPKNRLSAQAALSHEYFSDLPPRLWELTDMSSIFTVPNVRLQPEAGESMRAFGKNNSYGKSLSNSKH
Tyrosine-protein kinase Lyn (Homo sapiens), sequence (P07948 2-512 limits assumed): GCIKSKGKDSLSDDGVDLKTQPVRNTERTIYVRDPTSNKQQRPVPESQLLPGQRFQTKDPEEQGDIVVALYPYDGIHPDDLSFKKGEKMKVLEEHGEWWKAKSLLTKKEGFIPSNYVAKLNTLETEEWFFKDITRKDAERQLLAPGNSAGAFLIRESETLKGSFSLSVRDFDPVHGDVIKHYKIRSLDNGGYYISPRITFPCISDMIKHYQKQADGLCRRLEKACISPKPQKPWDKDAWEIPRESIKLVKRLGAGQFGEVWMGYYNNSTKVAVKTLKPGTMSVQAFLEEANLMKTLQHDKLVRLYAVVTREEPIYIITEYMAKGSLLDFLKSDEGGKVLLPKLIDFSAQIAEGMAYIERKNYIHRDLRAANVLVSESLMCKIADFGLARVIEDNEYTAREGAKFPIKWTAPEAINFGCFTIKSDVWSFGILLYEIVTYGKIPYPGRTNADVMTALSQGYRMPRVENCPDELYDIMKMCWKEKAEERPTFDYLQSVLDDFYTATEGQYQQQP

CN1CCN(c2cnc3c(C4CCN(C(=O)c5ccc(OC(F)(F)F)cc5N)CC4)ncnc3c2)CC1 [BAY-885]
inactive: [1] 100% | [2] 61% | [3] 79% | [4] 100% | [5] 92% | [6] 75% | [7] 100% | [8] 82% | [9] 100% | [10] 100% | [11] 100% | [12] 100% | [13] 99% | [14] 87%

Cc1nc(C2CCN(C(=O)c3ccc(OC(F)(F)F)cc3N)CC2)c2ncc(N3CCN(C)CC3)cc2n1 [BAY-693]
inactive: [1] 100% | [2] 100% | [3] 86% | [4] 79% | [5] 100% | [6] 100% | [7] 100% | [8] 79% | [9] 100% | [10] 100% | [11] 92% | [12] 100% | [13] 100% | [14] 90%
